The target in experiment [1] is IL-2-Inducible T-Cell Kinase (ITK) (Homo sapiens (Human), UniProt Q08881). The experiment can be described thus: ITK enzyme assay. The format is biochemical. The conditions noted are these: geometric mean of count n; ITK FL enzyme, BTK peptide substrate. Here is the method:
IL-2-Inducible T-Cell Kinase (ITK) Activity, IC50 (uM)
ITK activity was determined by measuring the effect of a test compound in an ITK enzyme assay.
1.0 M HEPES Buffer pH 7.5 solution was prepared as follows: 238.3 g HEPES free acid (Sigma) and 800 mL of water were combined, and the mixture was stirred until complete dissolution. The pH was adjusted to 7.5 via titration with 5N NaOH and the volume adjusted to 1000 mL. The solution was filtered and sterilized.
ITK assay buffer was prepared as follows: 50 mL of HPLC-grade water was treated with 2 mL of 1.0 M HEPES Buffer, 500 μL of 2% Gelatin (Sigma), 1.0 mL of aqueous MgCl2 solution (1.0 M), and 1.0 mL of aqueous glutathione solution (0.5 M), and the solution was mixed. The solution was brought to 99 mL in a graduated cylinder by addition of water and sterilized through a 0.2 μm filter. 0.1 mL of Brij-35™ Surfact-AmpS™ Detergent Solution (10% w/v aqueous solution, ThermoFisher) and 1.0 mL of ATP (Teknova, 100 mM) were added and the solution was mixed.
Preparation of 1.33×ITK enzyme solution was as follows: 49.99 mL of ITK assay buffer was treated with 4.1 μL of ITK enzyme (ITK FL (N-Flag and C-His tagged, ˜72 kDa) Lake Pharma, 0.25 mg/ml in a buffer containing 25 mM Tris pH 7.8, 150 mM NaCl, 10% glycerol and 2 mM TCEP) and the mixture was gently agitated. The resulting solution was stored on ice. 30 Minutes prior to use, the enzyme solution was removed from ice and equilibrated to RT by incubation in a RT water bath.
Preparation of 4×ITK substrate solution was as follows: 50 mL of ITK assay buffer was treated with 100 μL of BTK peptide (China Peptide Company, 2 mM stock solution in DMSO). The tube was capped, mixed by gently inverting the tube, and then stored on ice. 30 Minutes prior to use, the substrate solution was removed from ice and equilibrated to RT by incubation in a RT water bath.
At the time of assay, 7.5 μL of the 1.33×ITK enzyme solution was added to plate wells containing 0.1 μL of varying concentrations of test compound in DMSO. The plate was incubated 30 min at RT. The plate wells were each treated with 2.5 uL of the 4×ITK substrate solution and the plate was sealed (TopSeal™, Perkin Elmer). The plate was spun at 1000 rpm for 30 sec and then incubated for 60 min at RT. The seal was removed, and each well was treated with 10 μL of Stop/Detect Buffer (20 mM HEPES pH 7.5, 0.01% gelatin, 1 nM LANCE PT66 (Perkin Elmer), 16.5 μg/ml Surelight APC (Perkin Elmer), 10 mM EDTA, 250 mM NaCl). The plate was again covered and was spun at 1000 rpm for 30 seconds. The plate was allowed to incubate overnight at RT and in a closed carrier to reduce dehydration. The seal was removed, and the fluorescence was read with a plate reader with […]. The concentrations and resulting effect values for the tested compound were plotted and the concentration of compound required for 50% effect (IC50) was determined with the four-parameter logistic dose response equation.

The subject of experiment [2] is IL-2 in supernatants from activated CD4+ human T-cells. The experiment can be described thus: IL-2 inhibition in supernatants from activated CD4+ human T-cells (cisbio HTRF). The format is cell-based. The conditions noted are these: T-cell, read-out: IL-2 IC50. As for the experimental part:
IL-2-Inhibition Activity, IC50 (uM)
IL-2 inhibition activity in supernatants from activated CD4+ human T-cells was determined by measuring the effect of a test compound on the activity using the cisbio HTRF™ technology.
Human CD4+ T cells were activated with CD3/CD28 for 3 days and expanded for an additional 4-6 days (7 to 9 days total). On day 0, frozen CD4+ T cells were thawed, treated with CD3/CD28 Dynabeads, and incubated at 37° C./5% CO2. On day 3, the beads were removed, and the cells were diluted to 5×10^5 cells/cm^2, placed in G-Rex10 flask, and incubated at 37° C./5% CO2. On day 7 to day 9 the cells were removed from the G-Rex flasks, counted and diluted back to 1×10^6 cells/ml in standard tissue culture flask.
The expanded CD4+ T-cells were centrifuged at 300×g for 10 minutes and resuspended to 0.5 million cells per ml (30,000 cells/well). 60 μl of CD4+ T cells were added per well to a 384 well plate containing 0.1 μL of varying concentrations of test compound in DMSO. The plates were incubated for 15 min at 37° C./5% CO2. 20 μl of diluted ImmunoCult™ (STEMCELL Technologies, 1:12.5 in T cell assay media) were added to all wells of the plate (1:50 final assay concentration). The plates were incubated for an additional 20 to 24 hrs at 37° C./5% CO2. The plates were centrifuged at 300×g for 10 minutes. 16 μL of supernatant was removed and combined with 4 μl of IL-2 HTRF Abs. (cisbio kit). Plates were incubated for 3 hours at RT and read with an EnVision plate reader at 665 nm and 615 nm wavelengths. The concentrations and resulting effect values for the tested compound were plotted and the concentration of compound required for 50% effect (IC50) was determined with the four-parameter logistic dose response equation.
(Time-resolved FRET reads energy transfer from a long-lived donor to a nearby acceptor.)

Experiment [3] deals with Tropomyosin Receptor Kinase A (TRKA, NTRK1 enzyme) (Homo sapiens (Human), UniProt P04629). Description: TRKA (NTRK1) ThermoFisher Z'-LYTE assay. The format is biochemical. The conditions noted are these: read-out: TRKA % inhibition. Here is the method: Tropomyosin Receptor Kinase a (TRKA) Activity, % Inhibition
TRKA, also known as neurotrophic tyrosine kinase receptor type 1 (NTKR1) activity was determined by measuring the effect of a test compound on the activity against the NTRK1 enzyme using the ThermoFisher Z′-LYTE Assay fluorescence-based coupled enzyme format (www.thermofisher.com/selectscreen). Test compounds were screened at a fixed concentration of 1 uM and the % inhibition was determined compared to controls at a fixed ATP concentration of 1 mM. The resulting effect value for the tested compound was compared to the assay controls to determine the % inhibition (%). % Inhibition (%) values for compounds of the invention are presented in the Table that follows.

The mark [4] stands for this setting: geometric mean of count n, activated CD4+ human T-cells, 20 to 24 hrs.
The mark [5] stands for this setting: test compound 1 uM, ATP 1 mM, arithmetic mean of count n.

Like-named read-outs stand apart in the source and are kept apart here.

Sequence of Tropomyosin Receptor Kinase A (TRKA, NTRK1 enzyme) (P04629 33-796): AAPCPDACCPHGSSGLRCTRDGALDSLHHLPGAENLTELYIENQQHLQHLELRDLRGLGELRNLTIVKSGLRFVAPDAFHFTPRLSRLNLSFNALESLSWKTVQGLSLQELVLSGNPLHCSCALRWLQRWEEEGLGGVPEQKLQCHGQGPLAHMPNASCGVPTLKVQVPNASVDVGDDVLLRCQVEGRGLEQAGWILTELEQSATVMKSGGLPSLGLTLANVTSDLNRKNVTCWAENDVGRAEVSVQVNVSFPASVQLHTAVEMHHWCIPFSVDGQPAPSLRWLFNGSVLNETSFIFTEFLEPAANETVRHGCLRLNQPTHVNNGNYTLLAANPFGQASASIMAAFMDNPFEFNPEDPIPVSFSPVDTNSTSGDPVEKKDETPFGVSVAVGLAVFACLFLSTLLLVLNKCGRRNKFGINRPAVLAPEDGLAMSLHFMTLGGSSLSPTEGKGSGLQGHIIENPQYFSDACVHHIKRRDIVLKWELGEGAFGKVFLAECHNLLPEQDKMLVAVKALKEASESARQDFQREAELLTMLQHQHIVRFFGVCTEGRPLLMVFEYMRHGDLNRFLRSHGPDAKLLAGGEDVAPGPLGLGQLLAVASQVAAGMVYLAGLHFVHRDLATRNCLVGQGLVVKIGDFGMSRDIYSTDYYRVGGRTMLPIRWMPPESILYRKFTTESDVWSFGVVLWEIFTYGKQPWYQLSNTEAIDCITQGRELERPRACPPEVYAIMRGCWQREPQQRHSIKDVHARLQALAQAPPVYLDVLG
Sequence of IL-2-Inducible T-Cell Kinase (ITK) (Q08881 whole entry): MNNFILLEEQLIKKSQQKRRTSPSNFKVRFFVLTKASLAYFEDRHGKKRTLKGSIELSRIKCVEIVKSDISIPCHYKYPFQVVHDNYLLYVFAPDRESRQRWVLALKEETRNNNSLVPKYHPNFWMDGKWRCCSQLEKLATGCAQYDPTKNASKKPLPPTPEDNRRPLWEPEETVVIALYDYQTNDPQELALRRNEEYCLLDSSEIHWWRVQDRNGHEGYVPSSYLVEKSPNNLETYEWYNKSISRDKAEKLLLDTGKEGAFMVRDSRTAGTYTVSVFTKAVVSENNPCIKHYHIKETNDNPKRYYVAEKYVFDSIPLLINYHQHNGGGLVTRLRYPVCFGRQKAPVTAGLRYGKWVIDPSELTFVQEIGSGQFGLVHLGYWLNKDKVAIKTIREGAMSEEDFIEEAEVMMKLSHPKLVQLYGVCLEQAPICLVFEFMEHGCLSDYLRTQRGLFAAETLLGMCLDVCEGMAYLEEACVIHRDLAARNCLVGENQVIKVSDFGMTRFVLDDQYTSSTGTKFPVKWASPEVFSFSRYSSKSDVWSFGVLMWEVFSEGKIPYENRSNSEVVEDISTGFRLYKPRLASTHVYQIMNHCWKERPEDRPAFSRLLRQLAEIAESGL

For the compound `CC(=O)N(C)c1ccc2[nH]c(-c3n[nH]c4c3C[C@@H]3C(F)(F)[C@]3(C)C4)nc2c1` [Example 2, N-(2-((4aS,5aR)-5,5-difluoro-5a-methyl-1,4,4a,5,5a,6-hexahydrocyclopropa[f]indazol-3-yl)-1H-benzo[d]imidazol-5-yl)-N-methylacetamide], the results for the IC50 in experiment [1] and in experiment [2] (setting [4]) were 4 nM and 15 nM, respectively. Moreover, in experiment [3] (setting [5]), the inhibition at 1 µM was 95%.

In the case of `CC(=O)N(CC(=O)N(C)c1cc2nc(-c3n[nH]c4c3C[C@@H]3C[C@]3(C)C4)[nH]c2cc1C)C(C)C` [Example 35, 2-(N-Isopropylacetamido)-N-methyl-N-(6-methyl-2-((4aS,5aR)-5a-methyl-1,4,4a,5,5a,6-hexahydrocyclopropa[f]indazol-3-yl)-1H-benzo[d]imidazol-5-yl)acetamide], the IC50 is 5 nM in experiment [1] and 62 nM in experiment [2] (setting [4]). In addition, in experiment [3] (setting [5]), the inhibition at 1 µM stood at 97%.

In the case of `Cc1cc2[nH]c(-c3n[nH]c4c3C[C@@H]3C[C@]3(C)C4)nc2cc1N(C)C(=O)[C@@H]1CCOC1` [Example 29, (R)-N-Methyl-N-(6-methyl-2-((4aS,5aR)-5a-methyl-1,4,4a,5,5a,6-hexahydrocyclopropa[f]indazol-3-yl)-1H-benzo[d]imidazol-5-yl)tetrahydrofuran-3-carboxamide], the IC50 in experiment [1] is 6 nM; in experiment [2] (setting [4]), 61 nM. Also, the inhibition at 1 µM in experiment [3] (setting [5]) amounted to 97%.

In the case of `Cc1cc2[nH]c(-c3n[nH]c4c3C[C@@H]3C[C@]3(C)C4)nc2cc1N(C)C(=O)[C@H]1CCCO1` [Example 23, (R)-N-Methyl-N-(5-methyl-2-((4aS,5aR)-5a-methyl-1,4,4a,5,5a,6-hexahydrocyclopropa[f]indazol-3-yl)-1H-benzo[d]imidazol-6-yl)tetrahydrofuran-2-carboxamide], the IC50 in experiment [1] worked out at 10 nM; in experiment [2] (setting [4]), 89 nM. Further, in experiment [3] (setting [5]), the inhibition at 1 µM stood at 97%.

For `CC(=O)Nc1cc2nc(-c3n[nH]c4c3C[C@@H]3C[C@]3(C)C4)[nH]c2cc1C` [Example 4, N-(6-methyl-2-((4aS,5aR)-5a-methyl-1,4,4a,5,5a,6-hexahydrocyclopropa[f]indazol-3-yl)-1H-benzo[d]imidazol-5-yl)acetamide], the values for the IC50 in experiment [1] and in experiment [2] (setting [4]) were 71 nM and 391 nM, respectively. In addition, in experiment [3] (setting [5]), the inhibition at 1 µM amounted to 105%.

Turning to `CCOCC(=O)N(C)c1cc2nc(-c3n[nH]c4c3C[C@@H]3C[C@]3(C)C4)[nH]c2cc1C` [Example 38, 2-Ethoxy-N-methyl-N-(6-methyl-2-((4aS,5aR)-5a-methyl-1,4,4a,5,5a,6-hexahydrocyclopropa[f]indazol-3-yl)-1H-benzo[d]imidazol-5-yl)acetamide], the IC50 came out at 7 nM in experiment [1] and 74 nM in experiment [2] (setting [4]). Besides, the inhibition at 1 µM in experiment [3] (setting [5]) turned out to be 97%.

For the compound `COCCOc1cc2[nH]c(-c3n[nH]c4c3C[C@@H]3C[C@]3(C)C4)nc2cc1N(C)C(C)=O` [Example 7, N-(6-(2-methoxyethoxy)-2-((4aS,5aR)-5a-methyl-1,4,4a,5,5a,6-hexahydrocyclopropa[f]indazol-3-yl)-1H-benzo[d]imidazol-5-yl)-N-methylacetamide], the IC50 was 13 nM in experiment [1] and 595 nM in experiment [2] (setting [4]). Moreover, the inhibition at 1 µM in experiment [3] (setting [5]) is 105%.

Take `Cc1cc2[nH]c(-c3n[nH]c4c3C[C@@H]3C[C@]3(C)C4)nc2cc1N(C)C(=O)CN(C)C(=O)C(C)C` [Example 30, N-Methyl-N-(2-(methyl(6-methyl-2-((4aS,5aR)-5a-methyl-1,4,4a,5,5a,6-hexahydrocyclopropa[f]indazol-3-yl)-1H-benzo[d]imidazol-5-yl)amino)-2-oxoethyl)isobutyramide]: the IC50 in experiment [1] was found to be 3 nM; in experiment [2] (Homo sapiens), 51 nM. Besides, the inhibition at 1 µM in experiment [3] was found to be 98%.

On to `Cc1cc2[nH]c(-c3n[nH]c4c3C[C@@H]3C[C@]3(C)C4)nc2cc1N(C)C(=O)CN1CCCC1=O` [Example 31, N-Methyl-N-(6-methyl-2-((4aS,5aR)-5a-methyl-1,4,4a,5,5a,6-hexahydrocyclopropa[f]indazol-3-yl)-1H-benzo[d]imidazol-5-yl)-2-(2-oxopyrrolidin-1-yl)acetamide], for which the IC50 in experiment [1] was found to be 3 nM; in experiment [2] (setting [4]), 69 nM. The inhibition at 1 µM in experiment [3] (setting [5]) was 98%.

As for `CC(=O)N(C)c1cc2nc(-c3n[nH]c4c3C[C@@H]3C[C@]3(C)C4)[nH]c2cc1C` [Example 17, N-Methyl-N-(6-methyl-2-((4aS,5aR)-5a-methyl-1,4,4a,5,5a,6-hexahydrocyclopropa[f]indazol-3-yl)-1H-benzo[d]imidazol-5-yl)acetamide], the IC50 in experiment [1] is 10 nM; in experiment [2] (setting [4]) it was 81 nM. In addition, the inhibition at 1 µM in experiment [3] (setting [5]) was determined as 100%.

On to `COc1cc2[nH]c(-c3n[nH]c4c3C[C@@H]3C[C@]3(C)C4)nc2cc1N(C)C(C)=O` [Example 6, N-(6-methoxy-2-((4aS,5aR)-5a-methyl-1,4,4a,5,5a,6-hexahydrocyclopropa[f]indazol-3-yl)-1H-benzo[d]imidazol-5-yl)-N-methylacetamide], for which the values for the IC50 in experiment [1] and in experiment [2] (setting [4]) were 37 nM and 173 nM, respectively. Further, the inhibition at 1 µM in experiment [3] (setting [5]) amounted to 103%.

In general, IC50 refers to the midpoint of a concentration-inhibition curve. A word on the inhibition: it is the relative decrease from the control value, in per cent.
